From paper PMC4731763, “Naturally occurring proteinaceous nanoparticles in Coptidis Rhizoma extract act as concentration-dependent carriers that facilitate berberine absorption” (Scientific Reports, 2016)
Where two headings read alike, the source gives them in different places.

Tests used:
P-gp = conditions: cited from earlier work
mice = conditions: mouse, in vivo
Protocol: The mice (n = 20 mice per group, 10 males and 10 females) were orally administered the test materials and the reactions of the mice were recorded for 7 days. Using this method, the acute oral toxicities of the following materials were tested at the dose volume of 0.2 mL/10 g body weight (dissolved in water) and compared: (1) the Coptidis Rhizoma extract (1 or 3 g/kg); (2) the supernatant of the Coptidis Rhizoma extract (3 g/kg) after centrifugation (300,000 g, 30 min, 4 °C); (3) pure berberine (206 or 618 mg/kg, equal to the dose of berberine in the 1 and 3 g/kg extracts, respectively); (4) alkaloid extract of Coptidis Rhizoma (1259 mg/kg, equal to the dose of berberine in the 3 g/kg extract).

[1] = Pharmacokinetics in mice: plasma berberine exposure after oral administration; type: in vivo; conditions: both sexes, Kun-Ming, mouse
Protocol: A Shimadzu Prominence UFLCXR series HPLC (Shimadzu, Japan) and a Thermo Scientific TSQ Quantum Ultra mass spectrometer (Thermo Scientific, Waltham, MA, USA) equipped with an electrospray ionization (ESI) source were used. The samples were precipitated with 3 volumes of acetonitrile. Carbamazepine was used as the internal standard. After centrifugation (24,000 g, 6 min, 4 °C), the supernatant was mixed with an equal volume of water and 10-μL samples were injected into the LC-MS/MS system. The samples were eluted through a Hypersil Gold (C18) analytical column (5 μm, 100 × 2.1 mm) with a gradient of the aqueous phase (0.08% v/v formic acid and 2 mM ammonium acetate) and the acetonitrile phase (0 min, 85:15; 7 min, 32:68; 7.01 min, 85:15; 10 min, 85:15) at a flow rate of 0.3 mL/min. The ESI source was set to positive ion mode. Data acquisition was performed in the multiple reaction monitoring mode of the selective mass transition for each compound. The transitions from the precursor ions to the protonated fragment product ions were monitored: m/z 336.15 → m/z 322.28 for berberine and m/z 237.00 → m/z 194.31 for carbamazepine. The linear dynamic range for berberine in the tested biological samples was 0.5 to 500 ng/mL. […] The accuracy, precision, recovery, and stability tests all met the requirements of quantitative determination in biological samples. […]

[2] = parameters: method as in PMID 20138204; conditions: cited from earlier work

SMILES | Effect on P-gp (P-gp) | Acute oral toxicity (survival of mice) (mice; 206 mg/kg) | Acute oral toxicity (reaction or death of mice) (mice; 618 mg/kg) | AUC(0-t) ([1]; 206 mg/kg pure berberine, read-out: Plasma berberine AUC0–24 h) [ng·h/mL] | AUC(0-t) ([1]; 618 mg/kg pure berberine, read-out: Plasma berberine AUC0–4 h) [ng·h/mL] | Toxicity in vivo after oral administration [2] | P-gp substrate status (P-gp)
COc1cc([C@H]2Oc3cc(-c4cc(=O)c5c(O)cc(O)cc5o4)cc(OC)c3O[C@@H]2CO)ccc1O (racemic) [5′-methoxyhydnocarpin] | inhibitory effects on P-gp | – | – | – | – | – | –
COc1ccc2cc3[n+](cc2c1OC)CCc1cc2c(cc1-3)OCO2 [pure berberine, berberine] | – | survived | did not show toxic reactions | 722 | 22.1 | weak toxicity | P-gp substrate
